# Experimental data published in publication PMC11066006, “Discovery of active mouse, plant and fungal cytochrome P450s in endogenous proteomes and upon expression in planta” (Scientific Reports, 2024).
# Assays:
# Type in all cases: biochemical
# [1] = biological target: T1, ZmCYP81A9-GFP (Zea mays, UniProt A0A804P7U7); assay: activity-based labeling, streptavidin pull-down LC-MS/MS; settings: 10 μM probe, 1 mM NADPH, 1.5 h, leaf microsomes; covalent
# T1 construct: C-terminal GFP fusion, codon-optimised, agroinfiltrated Nicotiana benthamiana leaf microsomes
# T1 sequence (A0A804P7U7 with tags, fused parts or gaps): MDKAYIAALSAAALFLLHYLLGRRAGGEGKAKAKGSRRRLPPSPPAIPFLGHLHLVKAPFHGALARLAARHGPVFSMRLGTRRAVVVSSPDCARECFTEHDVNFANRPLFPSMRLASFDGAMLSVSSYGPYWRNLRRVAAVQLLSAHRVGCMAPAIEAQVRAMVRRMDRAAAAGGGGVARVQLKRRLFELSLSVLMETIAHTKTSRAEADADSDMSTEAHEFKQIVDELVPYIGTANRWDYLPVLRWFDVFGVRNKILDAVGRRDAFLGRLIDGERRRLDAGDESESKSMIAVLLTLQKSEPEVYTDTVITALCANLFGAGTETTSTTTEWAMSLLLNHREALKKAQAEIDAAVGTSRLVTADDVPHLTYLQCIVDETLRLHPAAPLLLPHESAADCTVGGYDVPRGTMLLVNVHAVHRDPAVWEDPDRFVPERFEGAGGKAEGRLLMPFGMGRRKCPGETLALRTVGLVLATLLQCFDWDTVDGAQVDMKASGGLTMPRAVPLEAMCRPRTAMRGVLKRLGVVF
# [2] = biological target: T1, ZmCYP81A9-GFP; assay: activity-based labeling, click chemistry, in-gel fluorescence; settings: 10 μM probe, 1 mM NADPH, 1.5 h, leaf microsomes; covalent
# [3] = biological target: T2, MmCyp1a2-GFP (Mus musculus, UniProt P00186); assay: as above; settings: 10 μM probe, 1 mM NADPH, 1.5 h, leaf microsomes; covalent
# T2 construct: gene Cyp1a2; C-terminal GFP fusion, 82 kDa, codon-optimised, agroinfiltrated Nicotiana benthamiana leaf microsomes
# T2 sequence (P00186 2-513): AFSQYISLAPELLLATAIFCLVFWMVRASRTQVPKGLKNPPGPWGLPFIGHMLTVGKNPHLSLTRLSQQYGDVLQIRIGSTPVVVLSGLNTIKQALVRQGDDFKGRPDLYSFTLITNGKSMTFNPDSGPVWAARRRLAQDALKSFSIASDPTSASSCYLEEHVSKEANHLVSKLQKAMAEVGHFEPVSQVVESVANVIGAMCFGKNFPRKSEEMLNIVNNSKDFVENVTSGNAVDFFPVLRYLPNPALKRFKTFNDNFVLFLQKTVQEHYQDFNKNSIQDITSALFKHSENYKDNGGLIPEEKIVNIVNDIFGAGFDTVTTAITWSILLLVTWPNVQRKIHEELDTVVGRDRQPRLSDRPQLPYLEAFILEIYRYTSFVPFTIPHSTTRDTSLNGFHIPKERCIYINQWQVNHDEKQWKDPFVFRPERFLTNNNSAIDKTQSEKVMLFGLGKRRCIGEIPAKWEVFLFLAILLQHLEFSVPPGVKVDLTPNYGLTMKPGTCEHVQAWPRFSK
# [4] = biological target: T3, ZtCYP539A6 (Zymoseptoria tritici, UniProt F9XDL6); assay: activity-based labeling, streptavidin pull-down LC-MS/MS; settings: 30 μM probe, 1 mM NADPH, 1 h, native Z. tritici microsomes; covalent
# T3 construct: gene CYP-30; native, microsomes of Z. tritici cell cultures, identified by MS; also expressed as C-terminal GFP fusion in N. benthamiana
# T3 sequence (F9XDL6 1-542): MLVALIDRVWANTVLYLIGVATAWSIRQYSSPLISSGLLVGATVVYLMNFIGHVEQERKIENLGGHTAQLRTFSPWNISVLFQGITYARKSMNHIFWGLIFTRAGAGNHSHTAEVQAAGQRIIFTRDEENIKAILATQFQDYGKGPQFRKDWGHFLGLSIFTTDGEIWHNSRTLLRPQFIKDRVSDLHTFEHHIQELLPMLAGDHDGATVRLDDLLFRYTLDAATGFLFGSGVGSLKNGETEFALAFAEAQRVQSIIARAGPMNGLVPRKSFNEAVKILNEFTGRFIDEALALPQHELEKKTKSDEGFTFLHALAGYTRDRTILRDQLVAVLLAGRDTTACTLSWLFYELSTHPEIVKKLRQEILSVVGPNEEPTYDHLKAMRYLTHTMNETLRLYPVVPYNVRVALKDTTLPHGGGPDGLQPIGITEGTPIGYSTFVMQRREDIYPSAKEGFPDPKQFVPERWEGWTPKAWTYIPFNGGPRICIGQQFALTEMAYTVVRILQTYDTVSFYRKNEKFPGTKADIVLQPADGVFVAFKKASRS
# [5] = biological target: T4, ZtCYP52R1 (Zymoseptoria tritici, UniProt F9XML6); assay: as above; settings: 30 μM probe, 1 mM NADPH, 1 h, native Z. tritici microsomes; covalent
# T4 construct: gene CYP-29; native, microsomes of Z. tritici cell cultures, identified by MS; also expressed as C-terminal GFP fusion in N. benthamiana
# T4 sequence (F9XML6 1-521): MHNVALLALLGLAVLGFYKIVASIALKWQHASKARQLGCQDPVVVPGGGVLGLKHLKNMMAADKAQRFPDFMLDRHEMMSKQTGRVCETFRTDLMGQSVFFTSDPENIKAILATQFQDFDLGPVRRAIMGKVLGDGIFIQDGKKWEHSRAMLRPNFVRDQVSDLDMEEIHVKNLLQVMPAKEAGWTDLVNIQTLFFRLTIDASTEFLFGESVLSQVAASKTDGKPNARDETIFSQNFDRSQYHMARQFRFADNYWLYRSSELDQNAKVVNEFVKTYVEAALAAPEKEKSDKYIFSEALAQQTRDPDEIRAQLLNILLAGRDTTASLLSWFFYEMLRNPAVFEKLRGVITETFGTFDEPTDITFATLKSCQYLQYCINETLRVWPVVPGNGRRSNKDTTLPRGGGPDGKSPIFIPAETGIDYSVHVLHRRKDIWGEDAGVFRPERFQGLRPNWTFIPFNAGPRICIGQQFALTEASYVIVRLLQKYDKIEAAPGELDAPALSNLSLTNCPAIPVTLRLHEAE
# [6] = biological target: T1, ZmCYP81A9-GFP; assay: activity-based labeling, in-gel fluorescence; streptavidin pull-down LC-MS/MS; settings: 10 μM probe, 1 mM NADPH, 1.5 h, leaf microsomes; covalent
# [7] = biological target: T5, ZmCYP81A9 (Zea mays, UniProt A0A804P7U7); assay: hydroxylation monitored by LC-MS; settings: yeast microsomes, 200 μM bentazone, 1 mM NADPH, pH 7.5, 28 °C, 2 h
# T5 construct: untagged as described; codon-optimised ORF in pYES3, microsomes of Saccharomyces cerevisiae WAT11
# T5 sequence (A0A804P7U7 with tags, fused parts or gaps): T1 sequence (A0A804P7U7 with tags, fused parts or gaps)
compound,measurement,setting,value
C#CCCCCNC(=O)C1=Cc2ccc(C#C)cc2CC1 [DB088],"activity-based labeling, streptavidin pull-down LC-MS/MS",[1],confirming that ZmCYP81A9-GFP is labeled by both DB088 and DB096
C#CCCCCNC(=O)c1cc2ccc(C#C)cc2oc1=O [DB086],"activity-based labeling, click chemistry, in-gel fluorescence",[2],NADPH-dependent fluorescent signal for DB086 and DB096
same,"activity-based labeling, click chemistry, in-gel fluorescence",[3],tested these for labeling with DB086 and DB096
C#CCCCCNC(=O)c1ccc(C#C)cc1 [DB096],"activity-based labeling, streptavidin pull-down LC-MS/MS",[4],"amongst the DB096-enriched proteins: ZtCYP52R1, ZtCYP539A6, ZtCYP5078B1 and ZtCYP5080H1"
same,"activity-based labeling, streptavidin pull-down LC-MS/MS",[5],"amongst the DB096-enriched proteins: ZtCYP52R1, ZtCYP539A6, ZtCYP5078B1 and ZtCYP5080H1"
same,"activity-based labeling, in-gel fluorescence; streptavidin pull-down LC-MS/MS",[6],NADPH-dependent fluorescent signal for DB086 and DB096
same,"activity-based labeling, click chemistry, in-gel fluorescence",[3],tested these for labeling with DB086 and DB096
CC(C)N1C(=O)c2ccccc2NS1(=O)=O [bentazone],hydroxylation monitored by LC-MS,[7],"used to monitor the conversion of bentazone, leading to hydroxybentazone"
